The test deals with T1, Angiotensin II Receptor (Bos taurus, UniProt P25104).
T1 construct: fresh adrenal glands received on crushed ice are cleaned of fatty tissues; from tissue; host or cells: beef adrenal cortex, microsomal membranes (100,000×g pellet)
T1 sequence (P25104 1-359): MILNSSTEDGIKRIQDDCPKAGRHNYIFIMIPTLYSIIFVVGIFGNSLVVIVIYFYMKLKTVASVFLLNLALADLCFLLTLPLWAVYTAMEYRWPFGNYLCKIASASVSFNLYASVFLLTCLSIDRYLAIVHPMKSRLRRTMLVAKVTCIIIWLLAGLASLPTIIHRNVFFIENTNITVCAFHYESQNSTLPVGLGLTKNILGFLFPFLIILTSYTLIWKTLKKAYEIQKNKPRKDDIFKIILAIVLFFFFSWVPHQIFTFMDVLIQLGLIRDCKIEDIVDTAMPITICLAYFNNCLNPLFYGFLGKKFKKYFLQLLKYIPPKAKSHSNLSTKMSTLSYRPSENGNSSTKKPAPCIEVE
In words: Receptor Binding Assay: displacement of [^125 I](Sar^1,Ile^8)AngII. Type of test: beef (adrenal cortex microsomal membranes). The source says:
Beef adrenals are obtained from a local slaughter house (Maxwell-Cohen). [^125 […]. 2200 Ci/mmole, is purchased from Dupont (NEN®, Boston, Mass.). All unlabeled AngII analogs, Dimethylsulfoxide (DMSO), nucleotides, bovine serum albumin (BSA) are purchased from Sigma Chemical Co., St. Louis, Mo. U.S.A. […] Approximately sixteen (16) to twenty (20) beef adrenal glands are processed as follows: fresh adrenal glands received on crushed ice are cleaned of fatty tissues and the tough membranes encapsulating the glands are removed and discarded. The brownish tissue forming the adrenal cortex is scraped off and finely minced with scissors before homogenization. Care is taken to avoid contamination with medullary tissue during dissection. The scraped cortices are suspended in twenty volumes of an ice-cold buffer medium consisting of 10 mM Tris.HCl (pH 7.4 at 22° C.) and containing 1.0 mM EDTA and 0.2M sucrose. Unless otherwise indicated, all subsequent operations are done at 4° C. […] The homogenate is centrifuged first at low speed (3,000×g) for 10 min. […] This P2 pellet is discarded and the liquid phase is carefully decanted off in clean centrifuge tubes and recentrifuged at high speed (100,000×g) for 60 min. The translucent final pellet is harvested and combined in a small volume (20-50.0 ml) of 50.0 mM Tris.HCl buffer, pH 7.2. A 100 ul aliquot is withdrawn and the protein content of the preparation is determined by the Lowry's method (Lowry, O. H., Rosebrough, […]. and Randall, R. J., Protein measurement with Folin phenol reagent. J. Biol. Chem., 48, 265-275, 1951). The pelleted membrane is reconstituted in 50.0 mM Tris.HCl buffer containing 0.1 mM of phenylmethylsulfonyl fluoride (PMSF) to give approximately a protein concentration of 2.5 mg per ml of tissue suspension. […] In competition studies, experimental compounds are diluted in dimethylsulfoxide (DMSO) and added in 20 ul to wells before the introduction of tissue membranes. […] Assays are performed in triplicate. The wells are left undisturbed for 60 min. at room temperature. Following incubation, all wells are harvested at once with a Brandel® Harvester especially designed for a 96 well plate (Brandel® Biomedical Research & Development Labs. Inc., Gaithersburg, Md., U.S.A.). The filter discs are washed with 10×1.0 ml of cold 0.9% NaCl to remove unbound ligand. […] This method is routinely used. The filters are removed from the filter grid and counted in a Parkard® Cobra Gamma Counter for 1 min. (Packard Instrument Co., Downers Grove, Ill., U.S.A.). The binding data are analyzed by the non-linear interactive "LUNDON-1" program (LUNDON SOFTWARE Inc., Cleveland, Ohio U.S.A.).

The mark [1] stands for this setting: continuation of Table I headed BIOLOGICAL DATA, read-out: Biological Data.
Where [2] appears, read: read-out: Angiotensin II Receptor Binding IC50.

The structures appear in SMILES notation. Counter-ions that a name gives are not always drawn. Like-named read-outs stand apart in the source and are kept apart here.

Turning to `CCCCc1nc2ccc([C@@]3(C)C[C@@H]4CCCN4O3)cc2c(=O)n1Cc1ccc(-c2ccccc2-c2nnn[nH]2)cc1` (relative stereo) [Example 73, Cis-2-Butyl-6-(hexahydro-2-methylpyrrolo[1,2-b]isoxazol-2-yl)-3-[[2'-(1H-(tetrazol-5-yl)[1,1'-biphenyl-4-yl]methyl]-4(3H)-quinazolinone sodium salt], the IC50 under setting [1] was 31 nM.

For the molecule `CCCCc1nc2ccc(C3(C)CC4c5ccccc5CCN4O3)cc2c(=O)n1Cc1ccc(-c2ccccc2-c2nnn[nH]2)cc1` (stereo not drawn) [Example 64, Cis and Trans-2-Butyl-6-(1,5,6,10b-tetrahydro-2-methyl-2H-isoxazolo[3,2-a]isoquinolin-2-yl)-3-[[2'-(1H-tetrazol-5-yl][1,1'-biphenyl]-4-yl]methyl]-4(3H)-quinazolinone], the IC50 under setting [2] is 94 nM.

Consider `CCCCc1nc2ccc(C3(C(=O)OC)CC4CCCN4O3)cc2c(=O)n1Cc1ccc(-c2ccccc2-c2nnn[nH]2)cc1` (mixture of isomers) [Example 78, Trans(+/-)-Methyl-2-[2-butyl-3,4-dihydro-4-oxo-3-[[2'-(1H-tetrazol-5-yl)[1,1'-biphenyl]-4-yl]methyl-6-quinazolinyl]hexahydropyrrolo[1,2-b]isoxazole-2-carboxylate], for which the IC50 under setting [1] was determined as 144 nM.

Take `CCCCc1nc2ccc([C@@H]3C[C@H]4c5ccccc5CCN4O3)cc2c(=O)n1Cc1ccc(-c2ccccc2-c2nnn[nH]2)cc1` (relative stereo) [Example 63, Cis-2-Butyl-6-(1,5,6,10b-tetrahydro-2H-isoxazolo[3,2-a]isoquinolin-2-yl)-3-[[2'-(1H-tetrazol5-yl)[1,1'-biphenyl]-4-yl]methyl]-4(3H)-quinazolinone]: the IC50 under setting [2] was found to be 54 nM.

With `CCCCc1nc2ccc([C@@]3(CC)C[C@@H]4CCCN4O3)cc2c(=O)n1Cc1ccc(-c2ccccc2-c2nnn[nH]2)cc1` (relative stereo) [Example 71, Cis-2-butyl-6-(2-ethylhexahydropyrrolo[1,2b]isoxazol-2-yl)-3-[[2'-[1-(1H-tetrazol-5-yl)][1,1'-biphenyl]-4-yl]methyl]-4(3H)-quinazolinone], under setting [2], the IC50 stood at 63 nM.
